Assay results: patent US20050182252A1, “Novel 2'-C-methyl nucleoside derivatives” (priority 2004, published 2005)
Structures can show the parent of a compound that is named as a salt.

Row | SMILES | melting point [°C]
1 | CO[C@@H]1COP(=O)(OC[C@H]2O[C@@H](n3ccc4c(N)ncnc43)[C@](C)(O)[C@@H]2O)O[C@@H]1c1cccc(Cl)c1 (stereo partly shown) (as salt: trifluoroacetic acid salt) [Compound 16.23] | 116 to 120
2 | C[C@@]1(O)[C@H](O)[C@@H](COP2(=O)OCC[C@H](c3cccc(C#N)c3)O2)O[C@H]1n1ccc2c(N)ncnc21 (stereo partly drawn) [Compound 16.43, 4-amino-7-(cis-5′-O-[4-(3-cyanophenyl)-2-oxo-1,3,2-dioxaphosphorinan-2-yl]-2′-C-methyl-beta-D-ribofuranosyl)-7H-pyrrolo[2,3-d]pyrimidine] | 157 to 160
3 | C[C@@]1(O)[C@H](O)[C@@H](COP2(=O)OCC[C@H](c3ccccn3)O2)O[C@H]1n1ccc2c(N)ncnc21 (stereo partly drawn) (as salt: trifluoroacetic acid salt) [Compound 16.33, 4-amino-7-(cis-5′-O-14-(pyridin-2-yl-2-oxo-1,3,2-dioxaphosphorinan-2-yl]-2′-C-methyl-beta-D-ribofuranosyl)-7H-pyrrolo[2,3-d]pyrimidine trifluoroacetic acid salt] | 88 to 90
4 | C[C@@]1(O)[C@H](O)[C@@H](COP2(=O)OCC[C@@H](c3ccccc3Br)O2)O[C@H]1n1ccc2c(N)ncnc21 (stereo partly drawn) [Compound 16.10, 4-amino-7-(cis-5′-O-[4-(2-bromophenyl)-2-oxo-1,3,2-dioxaphosphorinan-2-yl]-2′-C-methyl-beta-D-ribofuranosyl)-7H-pyrrolo[2,3-d]pyrimidine] | 132 to 135
5 | C[C@@]1(O)[C@H](O)[C@@H](COP2(=O)OCC[C@H](c3cc(F)cc(F)c3)O2)O[C@H]1n1ccc2c(N)ncnc21 (stereo partly drawn) [Compound 16.27, 4-amino-7-(cis-5′-O-[-4-(3,5-difluorophenyl)-2-oxo-1,3,2-dioxaphosphorinan-2-yl]-2′-C-methyl-beta-D-ribofuranosyl)-7H-pyrrolo[2,3-d]pyrimidine] | 135 to 140
6 | C[C@@]1(O)[C@H](O)[C@@H](COP2(=O)OCC[C@H](c3cc(Cl)cc(Cl)c3)O2)O[C@H]1n1ccc2c(N)ncnc21 (stereo partly drawn) [Compound 16.26, 4-amino-7-(cis-5′-O-[4-(3,5-dichlorophenyl)-2-oxo-1,3,2-dioxaphosphorinan-2-yl]-2′-C-methyl-beta-D-ribofuranosyl)-7H-pyrrolo[2,3-d]pyrimidine] | 182 to 185
7 | C[C@@]1(O)[C@H](O)[C@@H](COP2(=O)OCC[C@H](c3cccnc3)O2)O[C@H]1n1ccc2c(N)ncnc21 (stereo partly shown) [Compound 16.32] | 134 to 138
8 | C[C@@]1(O)[C@H](O)[C@@H](COP2(=O)OCC[C@H](c3cccc(F)c3F)O2)O[C@H]1n1ccc2c(N)ncnc21 (stereo partly drawn) (as salt: trifluoroacetic acid salt) [Compound 16.36, 4-amino-7-(cis-5′-O-[4-(2,3-difluorophenyl)-2-oxo-1,3,2-dioxaphosphorinan-2-yl]-2′-C-methyl-beta-D-ribofuranosyl)-7H-pyrrolo[2,3-d]pyrimidine trifluoroacetic acid salt] | 177 to 180
9 | C[C@@]1(O)[C@H](O)[C@@H](COP2(=O)OCC[C@H](c3ccc(F)cc3Cl)O2)O[C@H]1n1ccc2c(N)ncnc21 (stereo partly drawn) (as salt: trifluoroacetic acid salt) [Compound 16.38, 4-amino-7-(cis-5′-O-[4-(2-chloro-4-fluorophenyl)-2-oxo-1,3,2-dioxaphosphorinan-2-yl]-2′-C-methyl-beta-D-ribofuranosyl)-7H-pyrrolo[2,3-d]pyrimidine trifluoroacetic acid salt] | 138 to 141
10 | C[C@@]1(O)[C@H](O)[C@@H](COP2(=O)OCC[C@H](c3ccc(Cl)cc3)O2)O[C@H]1n1ccc2c(N)ncnc21 (stereo partly drawn) (as salt: trifluoroacetic acid salt) [Compound 16.35, 4-amino-7-(cis-5′-O-[4-(4-chlorophenyl-2-oxo-1,3,2-dioxaphosphorinan-2-yl]-2′-C-methyl-beta-D-ribofuranosyl)-7H-pyrrolo[2,3-d]pyrimidinetrifluoroacetic acid salt] | 182 to 184

Continued, values first:

Row | melting point [°C] | SMILES
11 | 108 to 110 | C[C@@]1(O)[C@H](O)[C@@H](COP2(=O)OCC[C@@H](c3cccc(Br)c3)O2)O[C@H]1n1cnc2c(N)ncnc21 (stereo partly drawn) [Compound 21.6, cis-5′-O-[4-(3-bromophenyl)-2-oxo-1,3,2-dioxaphosphorinan-2-yl]-2′-C-beta-methyl adenosine]
12 | 170 | C[C@@]1(O)[C@H](O)[C@@H](COP2(=O)OCC[C@@H](c3cccc(F)c3)O2)O[C@H]1n1ccc2c(=O)[nH]c(N)nc21 (stereo partly drawn) [Compound 17.14, 2-amino-7-(cis-5′-O-[4-(3-fluorophenyl)-2-oxo-1,3,2-dioxaphosphorinan-2-yl]-2-C methyl-beta-D-ribofuranosyl)-7H-pyrrolo[2,3-d]pyrimidin-4(3H)-one]
13 | 120 to 123 | C[C@@]1(O)[C@H](O)[C@@H](COP2(=O)OCC[C@@H](c3cc(F)cc(F)c3)O2)O[C@H]1n1cnc2c(N)ncnc21 (stereo partly drawn) [Compound 21.4, cis-5′-O-[4-(3,5-difluorophenyl)-2-oxo-1,3,2-dioxaphosphorinan-2-yl]-2′-C-beta-methyl-adenosine]
14 | 185 to 188 | C[C@@]1(O)[C@H](O)[C@@H](COP2(=O)OCC[C@@H](c3ccccc3C(F)(F)F)O2)O[C@H]1n1ccc2c(=O)[nH]c(N)nc21 (stereo partly drawn) (as salt: trifluoroacetic acid salt) [Compound 17.9, 2-amino-7-(cis-5-O-[4-(2-trifluoromethylphenyl)-2-oxo-1,3,2-dioxaphosphorinan-2-yl]-2′-C methyl-beta-D-ribofuranosyl)-7H-pyrrolo[2,3-d]pyrimidin-4(3H)-one trifluoroacetic acid salt]
15 | 215 to 220 | C[C@@]1(O)[C@H](O)[C@@H](COP2(=O)OCC[C@H](c3cccc(F)c3F)O2)O[C@H]1n1ccc2c(=O)[nH]c(N)nc21 (stereo partly drawn) (as salt: trifluoroacetic acid salt) [Compound 17.20, 2-amino-7-(cis-5′-O[4-(2,3-difluorophenyl)-2-oxo-1,3,2-dioxaphosphorinan-2-yl]-2′-C methyl-beta-D-ribofuranosyl)-7H-pyrrolo[2,3-d]pyrimidin-4(3H)-one trifluoroacetic acid salt]
16 | 145 to 165 | C[C@@]1(O)[C@H](O)[C@@H](COP2(=O)OCC[C@H](c3cccc(C(F)(F)F)c3)O2)O[C@H]1n1ccc2c(=O)[nH]c(N)nc21 (stereo partly shown) [Compound 17.24]
17 | 180 to 190 | C[C@@]1(O)[C@H](O)[C@@H](COP2(=O)OCC[C@@H](c3ccccn3)O2)O[C@H]1n1ccc2c(=O)[nH]c(N)nc21 (stereo partly drawn) (as salt: trifluoroacetic acid salt) [Compound 17.8, 2-amino-7-(cis-5′-O-[4-(pyridin-2-yl)-2-oxo-1,3,2-dioxaphosphorinan-2-yl]-2′-C methyl-beta-D-ribofuranosyl)-7H-pyrrolo[2,3-d]pyrimidin-4(3H)-one trifluoroacetic acid salt]
18 | 175 to 179 | C[C@@]1(O)[C@H](O)[C@@H](COP2(=O)OCC[C@@H](c3ccc(F)c(Br)c3)O2)O[C@H]1n1ccc2c(=O)[nH]c(N)nc21 (stereo partly drawn) [Compound 17.15, 2-amino-7-(cis-5′-O-[4-(3-bromo-4-fluoro-phenyl)-2-oxo-1,3,2-dioxaphosphorinan-2-yl]-2′-C methyl-beta-D-ribofuranosyl)-7H-pyrrolo[2,3-d]pyrimidin-4(3H)-one]
19 | 170 to 173 | C[C@@]1(O)[C@H](O)[C@@H](COP2(=O)OCC[C@@H](c3cc(F)ccc3F)O2)O[C@H]1n1ccc2c(=O)[nH]c(N)nc21 (stereo partly drawn) [Compound 17.6, 2-amino-7-(cis-5′-O-[4-(2,5-difluorophenyl)-2-oxo-1,3,2-dioxaphosphorinan-2-yl]-2′-C methyl-beta-D-ribofuranosyl)-7H-pyrrolo[2,3-d]pyrimidin-4(3H)-one]
20 | 175 | C[C@@]1(O)[C@H](O)[C@@H](COP2(=O)OCC[C@@H](c3cccc(Cl)c3)O2)O[C@H]1n1ccc2c(=O)[nH]c(N)nc21 (stereo partly drawn) [Compound 17.2, 2-amino-7-(cis-5-O-[4-(S)-(3-chlorophenyl)-2-oxo-1,3,2-dioxaphosphorinan-2-yl]-2′-C methyl-beta-D-ribofuranosyl)-7H-pyrrolo[2,3-d]pyrimidin-4(3H)-one]
21 | 182 to 185 | C[C@@]1(O)[C@H](O)[C@@H](COP2(=O)OCC[C@H](c3cc(F)cc(F)c3)O2)O[C@H]1n1ccc2c(=O)[nH]c(N)nc21 (stereo partly drawn) (as salt: trifluoroacetic acid salt) [Compound 17.11, 2-amino-7-(cis-5-O-[4-(3,5-difluorophenyl)-2-oxo-1,3,2-dioxaphosphorinan-2-yl]-2-C methyl-beta-D-ribofuranosyl)-7H-pyrrolo[2,3-d]pyrimidin-4(3H)-one trifluoroacetic acid salt]
22 | 177 to 180 | C[C@@]1(O)[C@H](O)[C@@H](COP2(=O)OCC[C@H](c3cc(Cl)cc(Cl)c3)O2)O[C@H]1n1ccc2c(=O)[nH]c(N)nc21 (stereo partly drawn) [Compound 17.12, 2-amino-7-(cis-5′-O-[4-(3,5-dichlorophenyl)-2-oxo-1,3,2-dioxaphosphorinan-2-yl]-2′C methyl-beta-D-ribofuranosyl)-7H-pyrrolo[2,3-d]pyrimidin-4(3H)-one]
23 | 137 to 140 | C[C@@]1(O)[C@H](O)[C@@H](COP2(=O)OCC[C@@H](c3cccnc3)O2)O[C@H]1n1cnc2c(N)ncnc21 (stereo partly drawn) [Compound 21.9, cis-5′-O-[4-(pyridine-3-yl)-2-oxo-1,3,2-dioxaphosphorinan-2-yl]-2′-C-beta-methyl-adenosine]
24 | 185 to 187 | C[C@@]1(O)[C@H](O)[C@@H](COP2(=O)OCC[C@@H](c3ccc(S(C)(=O)=O)cc3)O2)O[C@H]1n1cnc2c(N)ncnc21 (stereo partly drawn) (as salt: trifluoroacetic acid salt) [Compound 21.8, cis-5′-O-[4-(4-methylsulfonylphenyl)-2-oxo-1,3,2-dioxaphosphorinan-2-yl]-2′-C-beta-methyl-adenosine trifluoroacetic acid salt]
25 | 155 to 175 | C[C@@]1(O)[C@H](O)[C@@H](COP2(=O)OCC[C@H](c3cc(C(F)(F)F)cc(C(F)(F)F)c3)O2)O[C@H]1n1ccc2c(=O)[nH]c(N)nc21 (stereo partly shown) [Compound 17.23]
